One test concerns the target T1, human GLP2 receptor (Homo sapiens, UniProt O95838).
T1 construct: expressed in transfected cells; host or cells: HEK cells, BacMam virus transduction
T1 sequence (O95838 1-553): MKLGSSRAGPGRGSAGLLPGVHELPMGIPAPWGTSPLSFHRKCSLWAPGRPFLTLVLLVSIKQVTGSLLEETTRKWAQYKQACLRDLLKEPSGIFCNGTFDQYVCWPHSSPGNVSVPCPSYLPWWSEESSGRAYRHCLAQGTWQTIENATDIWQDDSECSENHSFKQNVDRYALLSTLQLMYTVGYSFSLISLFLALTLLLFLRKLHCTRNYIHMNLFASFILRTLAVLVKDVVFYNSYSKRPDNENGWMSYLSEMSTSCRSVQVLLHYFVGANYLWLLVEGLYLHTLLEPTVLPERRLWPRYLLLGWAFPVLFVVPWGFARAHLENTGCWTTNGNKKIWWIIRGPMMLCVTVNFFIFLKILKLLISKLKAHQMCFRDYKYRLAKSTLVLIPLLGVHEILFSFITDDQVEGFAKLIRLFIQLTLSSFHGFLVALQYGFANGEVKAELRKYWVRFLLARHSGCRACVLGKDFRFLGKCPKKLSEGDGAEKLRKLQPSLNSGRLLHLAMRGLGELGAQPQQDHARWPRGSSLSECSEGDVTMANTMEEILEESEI
The test can be described thus: cAMP accumulation assay, functional agonism of human GLP2 receptor. It is filed as cell-based. The note with it: HEK cells infected with human GLP2 receptor BacMam virus, HTRF cAMP; for Emax: HEK293, read-out: Human GLP-2R agonist cAMP Emax; for EC50: read-out: Human GLP-2R agonist cAMP pEC50 (converted). The protocol: (§1) CAMP production upon agonist stimulation of human GLP2 or GLP1 receptor was assessed utilizing HiRange cAMP kit (Cisbio). In brief, HEK cells were infected with either human GLP2 or GLP1 receptor BacMam virus for 24 hours and frozen for later use in the assay. […] Cells were prepared in the assay buffer (HBSS (Lonza) supplemented with 0.5 mM IBMX (Tocris)). After 45 min incubation at 37° C., the reaction was stopped by addition of the HTRF detection reagents in the lysis buffer provided in the kit.

The target in another test is T2, human GLP1 receptor (Homo sapiens, UniProt P43220).
T2 construct: expressed in transfected cells; host or cells: HEK cells, BacMam virus transduction
The test can be described thus: cAMP accumulation assay, functional agonism of human GLP1 receptor. It is filed as cell-based. The note with it: HEK cells infected with human GLP1 receptor BacMam virus, HTRF cAMP; for Emax: HEK293, read-out: Human GLP-1R agonist cAMP Emax; for EC50: read-out: Human GLP-1R agonist cAMP pEC50 (converted). The protocol:
as §1
In general terms: cAMP levels reflect the balance of adenylyl cyclase and phosphodiesterase activity.

Positions of bridges follow the written chain, without caps; N, C: chain ends. Non-standard residues stand in square brackets, D forms with d. Residues, ends and D or L forms follow the SMILES beside them. *: point of attachment. Malonyl(2,2-Me2,histaminyl) = CC(C)(C(=O)NCCc1cnc[nH]1)C(=O)*; Ala(1H-tetrazol-5-yl) = N[C@@H](Cc1nnn[nH]1)C(=O)O; Nle = CCCC[C@H](N)C(=O)O; Aib = CC(C)(N)C(=O)O

In general, Emax refers to the size of the effect at its maximum, as opposed to the concentration needed.

T2 sequence (P43220 24-463): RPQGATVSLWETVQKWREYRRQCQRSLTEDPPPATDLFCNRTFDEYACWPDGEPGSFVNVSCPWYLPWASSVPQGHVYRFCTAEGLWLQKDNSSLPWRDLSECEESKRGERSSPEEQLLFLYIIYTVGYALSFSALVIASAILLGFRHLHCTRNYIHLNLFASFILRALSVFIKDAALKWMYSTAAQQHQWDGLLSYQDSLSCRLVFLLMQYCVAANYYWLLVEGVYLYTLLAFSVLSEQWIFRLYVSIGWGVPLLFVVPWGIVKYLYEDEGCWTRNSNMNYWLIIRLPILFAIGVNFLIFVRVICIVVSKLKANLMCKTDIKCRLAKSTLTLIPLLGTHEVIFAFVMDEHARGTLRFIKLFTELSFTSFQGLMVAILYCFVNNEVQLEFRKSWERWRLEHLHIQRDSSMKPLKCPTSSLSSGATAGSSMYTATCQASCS

Consider `CCCC[C@H](NC(=O)[C@H](CCC(=O)O)NC(=O)[C@H](CC(=O)O)NC(=O)[C@H](CO)NC(=O)[C@H](Cc1ccccc1)NC(=O)[C@H](CO)NC(=O)CNC(=O)[C@H](CC(=O)O)NC(=O)C(C)(C)NC(=O)[C@@H](N)Cc1c[nH]cn1)C(=O)N[C@H](Cc1ccccc1)C(=O)N[C@H](C(=O)N[C@H](C(=O)N[C@@H](CC(C)C)C(=O)N[C@@H](CC(=O)O)C(=O)N[C@@H](CC(C)C)C(=O)N[C@@H](CCCCN)C(=O)N[C@@H](C)C(=O)N[C@@H](C)C(=O)N[C@@H](CCCCN)C(=O)N[C@@H](CC(=O)O)C(=O)N[C@@H](Cc1ccccc1)C(=O)N[C@H](C(=O)N[C@H]1CCC(=O)NCCCC[C@@H](C(=O)N[C@H](C(=O)N[C@@H](CCCCN)C(=O)N[C@H](C(=O)N[C@H](C(=O)N[C@@H](CC(=O)O)C(N)=O)[C@@H](C)O)[C@@H](C)CC)[C@@H](C)O)NC(=O)[C@H]([C@@H](C)CC)NC(=O)[C@H](CC(C)C)NC(=O)[C@H](Cc2c[nH]c3ccccc23)NC1=O)[C@@H](C)CC)[C@@H](C)CC)[C@@H](C)O` [Example 99] (H-H[Aib]DGSFSDE[Nle][dF]TILDLKAAKDFIEWLIKTKITD-NH2; lactam 24-28 (inferred); C-terminus assumed), for which, at human GLP2 receptor, the maximal effect (Emax) is 101% and the EC50 is 0.00501 nM. Further, on human GLP1 receptor, the maximum response (Emax) worked out at 97.1% and the EC50 is 2.51 nM.
Regarding `CCCC[C@H](NC(=O)[C@H](CCC(=O)O)NC(=O)[C@H](CC(=O)O)NC(=O)[C@H](CO)NC(=O)[C@H](Cc1ccccc1)NC(=O)[C@H](CO)NC(=O)CNC(=O)[C@H](CC(=O)O)NC(=O)C(C)(C)NC(=O)[C@@H](N)Cc1c[nH]cn1)C(=O)N[C@H](Cc1ccccc1)C(=O)N[C@H](C(=O)N[C@H](C(=O)N[C@@H](CC(C)C)C(=O)N[C@@H](CC(=O)O)C(=O)N[C@@H](CC(C)C)C(=O)N[C@H]1CCC(=O)NCCCC[C@@H](C(=O)N[C@@H](CC(=O)O)C(=O)N[C@@H](Cc2ccccc2)C(=O)N[C@H](C(=O)N[C@@H](CC(N)=O)C(=O)N[C@@H](Cc2c[nH]c3ccccc23)C(=O)N[C@@H](CC(C)C)C(=O)N[C@H](C(=O)N[C@@H](CCC(N)=O)C(=O)N[C@H](C(=O)N[C@@H](CCCCN)C(=O)N[C@H](C(=O)N[C@H](C(=O)N[C@@H](CC(=O)O)C(N)=O)[C@@H](C)O)[C@@H](C)CC)[C@@H](C)O)[C@@H](C)CC)[C@@H](C)CC)NC(=O)[C@H](C)NC(=O)[C@H](C)NC1=O)[C@@H](C)CC)[C@@H](C)O` [Example 98] (H-H[Aib]DGSFSDE[Nle][dF]TILDLEAAKDFINWLIQTKITD-NH2; lactam 17-20; C-terminus assumed), on human GLP2 receptor, the maximal response (Emax) was 101% and the EC50 was 0.00631 nM. At human GLP1 receptor, the maximal response (Emax) was 96% and the EC50 is 20 nM.
As for `CCCC[C@@H]1NC(=O)[C@H](CCC(=O)O)NC(=O)[C@@H](NC(=O)[C@H](CO)NC(=O)[C@H](Cc2ccccc2)NC(=O)[C@H](CO)NC(=O)CNC(=O)[C@H](Cc2nn[nH]n2)NC(=O)C(C)(C)C(=O)NCCc2c[nH]cn2)CCCCNC(=O)C[C@@H](C(=O)N[C@H](C(=O)N[C@@H](CC(C)C)C(=O)N[C@@H](CC(=O)O)C(=O)N[C@H]2CCC(=O)NCCCC[C@@H](C(=O)N[C@@H](CC(=O)O)C(=O)N[C@@H](Cc3ccccc3)C(=O)N[C@H](C(=O)N[C@@H](CC(N)=O)C(=O)N[C@@H](Cc3c[nH]c4ccccc34)C(=O)N[C@@H](CC(C)C)C(=O)N[C@H](C(=O)N[C@@H](CCC(N)=O)C(=O)N[C@H](C(=O)N[C@@H](CCCCN)C(=O)N[C@H](C(=O)N[C@H](C(=O)N[C@@H](Cc3ccccc3)C(N)=O)[C@@H](C)O)[C@@H](C)CC)[C@@H](C)O)[C@@H](C)CC)[C@@H](C)CC)NC(=O)[C@H](C)NC(=O)[C@H](C)NC(=O)[C@H](CCCCN)NC2=O)[C@@H](C)CC)NC(=O)[C@@H](Cc2ccccc2)NC1=O` [Example 115] ({Malonyl(2,2-Me2,histaminyl)}-[Ala(1H-tetrazol-5-yl)]GSFSKE[Nle][dF]DILDEKAAKDFINWLIQTKITF-NH2; lactam 6-10, 14-18 (inferred); C-terminus assumed), the Emax at human GLP2 receptor turned out to be 104%; on human GLP1 receptor, 92%. Further, the EC50 on human GLP2 receptor is 0.02 nM; at human GLP1 receptor, 0.501 nM.
Turning to `CCCC[C@@H]1NC(=O)[C@H](CCC(=O)O)NC(=O)[C@@H](NC(=O)[C@H](CO)NC(=O)[C@H](Cc2ccccc2)NC(=O)[C@H](CO)NC(=O)CNC(=O)[C@H](Cc2nn[nH]n2)NC(=O)C(C)(C)C(=O)NCCc2c[nH]cn2)CCCCNC(=O)C[C@@H](C(=O)N[C@H](C(=O)N[C@@H](CC(C)C)C(=O)N[C@@H](CC(=O)O)C(=O)N[C@H]2CC(=O)NCCCC[C@@H](C(=O)N[C@@H](CC(=O)O)C(=O)N[C@@H](Cc3ccccc3)C(=O)N[C@H](C(=O)N[C@@H](CC(N)=O)C(=O)N[C@@H](Cc3c[nH]c4ccccc34)C(=O)N[C@@H](CC(C)C)C(=O)N[C@H](C(=O)N[C@@H](CCC(N)=O)C(=O)N[C@H](C(=O)N[C@@H](CCCCN)C(=O)N[C@H](C(=O)N[C@H](C(=O)N[C@@H](Cc3ccccc3)C(N)=O)[C@@H](C)O)[C@@H](C)CC)[C@@H](C)O)[C@@H](C)CC)[C@@H](C)CC)NC(=O)[C@H](C)NC(=O)[C@H](C)NC(=O)[C@H](CCCCN)NC2=O)[C@@H](C)CC)NC(=O)[C@@H](Cc2ccccc2)NC1=O` [Example 114] ({Malonyl(2,2-Me2,histaminyl)}-[Ala(1H-tetrazol-5-yl)]GSFSKE[Nle][dF]DILDDKAAKDFINWLIQTKITF-NH2; lactam 6-10, 14-18 (inferred); C-terminus assumed), on human GLP2 receptor, the Emax turned out to be 102% and the EC50 was 0.02 nM. Besides, at human GLP1 receptor, the Emax was found to be 89.1% and the EC50 was 3.16 nM.
As to `CCCC[C@H](NC(=O)[C@H](CCC(=O)O)NC(=O)[C@H](CC(=O)O)NC(=O)[C@H](CO)NC(=O)[C@H](Cc1ccccc1)NC(=O)[C@H](CO)NC(=O)CNC(=O)[C@H](Cc1nn[nH]n1)NC(=O)C(C)(C)C(=O)NCCc1c[nH]cn1)C(=O)N[C@H](Cc1ccccc1)C(=O)N[C@H](C(=O)N[C@H](C(=O)N[C@@H](CC(C)C)C(=O)N[C@@H](CC(=O)O)C(=O)N[C@@H](CC(C)C)C(=O)N[C@@H](CCCCN)C(=O)N[C@@H](C)C(=O)N[C@@H](C)C(=O)N[C@@H](CCCCN)C(=O)N[C@@H](CC(=O)O)C(=O)N[C@@H](Cc1ccccc1)C(=O)N[C@H](C(=O)N[C@@H](CC(N)=O)C(=O)N[C@@H](Cc1c[nH]c2ccccc12)C(=O)N[C@@H](CC(C)C)C(=O)N[C@H](C(=O)N[C@@H](CCC(N)=O)C(=O)N[C@H](C(=O)N[C@H]1CCC(=O)NCCCC[C@@H](C(N)=O)NC(=O)[C@H]([C@@H](C)O)NC(=O)[C@H]([C@@H](C)CC)NC1=O)[C@@H](C)O)[C@@H](C)CC)[C@@H](C)CC)[C@@H](C)CC)[C@@H](C)O` [Example 83] ({Malonyl(2,2-Me2,histaminyl)}-[Ala(1H-tetrazol-5-yl)]GSFSDE[Nle][dF]TILDLKAAKDFINWLIQTEITK-NH2; lactam 28-31 (inferred); C-terminus assumed), the figures for the Emax on human GLP2 receptor and at human GLP1 receptor were 103% and 98.1%, respectively. Besides, the EC50 on human GLP2 receptor was 0.251 nM; at human GLP1 receptor, 0.631 nM.

The record behind these values is patent publication US20240270809A1, “ORAL GLP RECEPTOR AGONISTS” (priority 2020, published 2024).
